We go through eleven compounds from article PMC6332029, “Mimosine Dipeptide Enantiomsers: Improved Inhibitors against Melanogenesis and Cyclooxygenase” (Molecules, 2015).

Several values for one entry are separate records, joined by “and”; a condition that tells them apart may be missing. Equal entries are not always repeated. Where two headings read alike, the source gives them in different places.

Assay [1] concerns B16F10 melanoma cells. Put plainly: Determination of melanin content in B16F10 cells. In kind it is cell-based, Mouse. The conditions noted are these: read-out: IC50 for Melanin Content Inhibition. How it is done: (§1) Mouse B16F10 cell line was obtained from American Type Culture Collection (Manassas, VA, USA). Cells were cultured in Dulbecco’s modified minimum essential medium (D-MEM) medium containing 10% fetal bovine serum (FBS), 1% penicillin/streptomycin in a humidified atmosphere with 5% CO2 incubator at 37 °C.
The assay was performed following previously described procedure. Cells (5 × 10^3 cells/well) were seeded in a 96-well plate and cultured for 24 h. Compounds (10–500 μM) were added and incubated at 37 °C for 48 h. The medium was replaced by a fresh medium containing the same concentration of compound and the cells were incubated for 48 h. The medium was removed and the cells were dissolved in 100 μL of 1 N NaOH. The reaction was heated at 90 °C for 1 h. Melanin content was estimated by the absorbance at 400 nm.

Assay [2] concerns intracellular tyrosinase in B16F10 melanoma cells. Briefly: Intracellular tyrosinase inhibition assay. The assay is classed as cell-based, Mouse. The note with it: L-DOPA substrate, mean ± SE, read-out: IC50 for Cellular Tyrosinase Inhibition. How it is done: as §1
Cells were seeded in a 96-well plate at a density 5 × 10^3 cells/well and the compounds (10–500 μM) were added after 24 h treatment. Cells were incubated for 48 h, washed two times with 50 mM of ice-cold phosphate buffer (pH 6.8), lysed with 90 μL of 50 mM phosphate buffer (pH 6.8) containing 1% Triton-X, and frozen at −80 °C for 30 min. After thawing and mixing, 20 μL of 0.5% L-DOPA was added to each well. The mixture was incubated for 2 h at 37 °C and absorbance was measured at 490 nm.

Assay [3] deals with mushroom tyrosinase. Briefly: Mushroom tyrosinase inhibition microplate assay (L-tyrosine substrate). In kind it is biochemical. The note with it: L-tyrosine as substrate; mean ± SE. How it is done: (§2) A microplate assay was used to assess tyrosinase inhibition, as previously described. Samples (20 μL) with various concentrations were transferred into each well of 96-well plate, and 120 μL of 20 mM sodium phosphate buffer (pH 6.8), 20 μL of 500 U/mL mushroom tyrosinase enzyme dissolved in buffer were added. […] The absorbance was recorded at 470 nm using a microplate reader (Benchmark plus, Biorad, Herfordshire, UK). […] For the kinetic studies of selected inhibitors, we used a range of L-tyrosine concentrations for each inhibitor concentration. Preincubation and measurement times were the same as above. Lineweaver-Burk plots were used to determine the type of enzyme inhibition, and the inhibition constant Ki was determined by plotting Km/Vmax versus the inhibitor concentration. Percent inhibition was calculated using the following equation: Inhibition (%) = ([CE − Co] − [SE − So])/(CE − Co) × 100 (1) where CE is the absorbance of the control samples with enzyme, Co is the absorbance of the control samples without enzyme, SE is the absorbance of the tested sample with enzyme, and So is the absorbance of the tested sample without enzyme.

Assay [4] has as its target T1, COX-1 (Ovis aries, UniProt P05979).
T1 construct: purchased Cayman Chemical, Ann Arbor, Michigan, USA
T1 sequence (P05979 25-600): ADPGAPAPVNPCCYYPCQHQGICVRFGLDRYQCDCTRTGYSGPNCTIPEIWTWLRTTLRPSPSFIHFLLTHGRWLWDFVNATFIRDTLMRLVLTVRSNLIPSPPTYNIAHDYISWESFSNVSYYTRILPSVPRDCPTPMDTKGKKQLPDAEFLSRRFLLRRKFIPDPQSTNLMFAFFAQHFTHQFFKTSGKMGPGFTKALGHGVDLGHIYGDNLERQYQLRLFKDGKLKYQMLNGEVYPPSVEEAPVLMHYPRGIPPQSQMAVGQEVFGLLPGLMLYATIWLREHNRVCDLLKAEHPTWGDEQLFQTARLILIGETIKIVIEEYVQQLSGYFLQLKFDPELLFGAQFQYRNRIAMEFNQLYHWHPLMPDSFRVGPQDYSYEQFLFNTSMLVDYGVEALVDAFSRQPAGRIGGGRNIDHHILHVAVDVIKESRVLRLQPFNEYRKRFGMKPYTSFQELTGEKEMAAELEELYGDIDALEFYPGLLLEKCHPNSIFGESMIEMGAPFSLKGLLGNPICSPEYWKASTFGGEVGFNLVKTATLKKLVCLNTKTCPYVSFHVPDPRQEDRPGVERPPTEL
Briefly: Colorimetric COX (ovine) inhibitor screening assay, COX-1. The assay is classed as biochemical. The conditions noted are these: ovine COX-1, colorimetric kit; mean ± SE. The method, then:
(§3) Inhibition of COX activity was measured using a colorimetric COX (ovine) inhibitor screening assay kit (Cayman Chemical, Ann Arbor, Michigan, USA). First, 150 μL of assay buffer (0.1 M Tris-HCl, pH 8.0), 10 μL of heme, and 10 μL of enzyme (COX-1 or COX-2) were added to an […] 96-well microtiter plate. Immediately, 10 μL of sample was added to inhibitor wells while 10 μL of solvent or buffer was added to control and background wells, respectively. […] The mixture was shaken for a few seconds and incubated for an additional 5 min at 25 °C. The absorbance was determined at 590 nm using a microplate reader (Benchmark plus, Biorad, Herfordshire, UK). […] The corrected absorbance of all the samples and controls was calculated by subtracting the absorbance of the background wells. The percentage of inhibition was calculated as follows: Inhibition (%) = (Ao − As)/Ao × 100 (2) where Ao and As are the absorbance of the corrected control and sample, respectively.

The target of assay [5] is T2, COX-2 (Ovis aries, UniProt P79208).
T2 sequence (P79208 17-603): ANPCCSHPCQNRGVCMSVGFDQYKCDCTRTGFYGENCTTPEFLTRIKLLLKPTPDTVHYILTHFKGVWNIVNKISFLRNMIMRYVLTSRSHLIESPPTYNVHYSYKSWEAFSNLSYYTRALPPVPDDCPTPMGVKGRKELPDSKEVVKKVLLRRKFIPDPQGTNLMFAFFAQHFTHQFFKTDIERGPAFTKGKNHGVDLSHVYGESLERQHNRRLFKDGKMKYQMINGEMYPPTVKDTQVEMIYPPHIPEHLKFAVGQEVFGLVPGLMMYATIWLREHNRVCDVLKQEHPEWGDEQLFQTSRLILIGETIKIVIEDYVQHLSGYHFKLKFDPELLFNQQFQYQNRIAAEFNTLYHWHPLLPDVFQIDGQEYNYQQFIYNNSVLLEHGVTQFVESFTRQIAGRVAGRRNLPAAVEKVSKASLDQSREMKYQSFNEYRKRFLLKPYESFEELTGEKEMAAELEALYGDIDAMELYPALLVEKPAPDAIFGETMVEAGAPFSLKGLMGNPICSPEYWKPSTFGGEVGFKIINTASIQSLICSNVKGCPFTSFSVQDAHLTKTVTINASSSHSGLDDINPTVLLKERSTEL
Briefly: Colorimetric COX (ovine) inhibitor screening assay, COX-2. The assay is classed as biochemical. The conditions noted are these: ovine COX-2, colorimetric kit; mean ± SE. How it is done: as §3

Assay [6] relates to COX-2. Described as above. The assay is classed as biochemical. The conditions noted are these: ratio of COX-1 IC50 to COX-2 IC50. The method, then: as §3
For assay [7], the system named is mushroom tyrosinase. Briefly: Kinetic analysis of tyrosinase inhibition (Lineweaver-Burk plots). In kind it is biochemical. The conditions noted are these: substrate L-tyrosine; for Inhibition Type: Lineweaver-Burk plots, inhibitor 0, 5, 15 μM; for Ki: plot of Km/Vmax versus inhibitor concentration, read-out: Inhibition Constant (Ki). The method, then:
Tyrosinase activity was assayed as described in the text.
as §2

Assay [8] deals with mushroom tyrosinase. Details: method as in doi:10.1016/S0031-9422(00)82317-1. The note with it: cited from earlier work.
[9] abbreviates: Mus musculus, B16-F10, mean ± SE.

Regarding `C[C@@H](NC(=O)[C@@H](N)Cn1ccc(=O)c(O)c1)C(=O)O` [Mi-D-Ala], the concentration for half-maximal inhibition (IC50) – broadly, the concentration that inhibits the measured activity by half – in assay [1] (setting [9]) was found to be 199 ± 5.2 µM; in assay [2] (Mus musculus, B16-F10, 48 h), 181 ± 6.8 µM; in assay [3], 17.7 ± 3.1 µM; in assay [4], 19.1 ± 1 µM; in assay [5] it was 198 ± 3.7 µM. Moreover, the “SI COX-1/COX-2 (selectivity index, COX-1 IC50/COX-2 IC50)” value in assay [6] was determined as 0.10.
`CC(C)[C@H](NC(=O)[C@@H](N)Cn1ccc(=O)c(O)c1)C(=O)O` [Mi-L-Val]: the IC50 in assay [1] (setting [9]) is 170 ± 7.5 µM; in assay [2] (Mus musculus, B16-F10, 48 h), 172 ± 6.5 µM; in assay [3] it was 12 µM and 11.5 µM; in assay [4] it was 24.4 ± 1.4 µM; in assay [5], 22 µM and 21.7 µM. Besides, the “Inhibition Type” value in assay [7] was “competitive”. The Ki (commonly the dissociation constant of the complex between target and ligand, obtained from inhibition or displacement) in assay [7] stood at 30 µM. The “SI COX-1/COX-2 (selectivity index, COX-1 IC50/COX-2 IC50)” value in assay [6] amounted to 1.12.
In the case of `N[C@@H](Cn1ccc(=O)c(O)c1)C(=O)O` [Mimosine, β-[N-(3-hydroxy-4-oxypyridyl)]-α-aminopropionic acid], the IC50 was about 226 µM in assay [1] (setting [9]); 226 ± 4 µM in assay [1] (mean ± SE); 388 ± 7.2 µM in assay [2] (48 h); about 388 µM in assay [2] (Mus musculus, B16-F10, 48 h); 32.4 ± 1.1 µM in assay [3]; 29 µM and 28.8 µM in assay [4]. Also, in assay [5], the IC50 was 21 µM and 20.9 µM. In addition, in assay [8], the “Inhibition type of tyrosinase” value was “competitive”. For the same compound, the “SI COX-1/COX-2 (selectivity index, COX-1 IC50/COX-2 IC50)” value in assay [6] stood at 1.38.
Turning to `N[C@@H](Cn1ccc(=O)c(O)c1)C(=O)N[C@@H](Cc1c[nH]c2ccccc12)C(=O)O` [Mi-L-Trp], the IC50 is 109 ± 2.7 µM in assay [1] (setting [9]); 156 ± 8.3 µM in assay [2] (Mus musculus, B16-F10, 48 h); 19.2 ± 1.5 µM in assay [3]; 20.4 ± 1.6 µM in assay [4]; 19 µM and 19.3 µM in assay [5].
With `C[C@H](NC(=O)[C@@H](N)Cn1ccc(=O)c(O)c1)C(=O)O` [Mi-L-Ala], the concentration for half-maximal inhibition (IC50) stood at 128 ± 7.4 µM in assay [1] (setting [9]); 172 ± 4.6 µM in assay [2] (Mus musculus, B16-F10, 48 h); 23.1 ± 2.2 µM in assay [3].
For `N[C@@H](Cn1ccc(=O)c(O)c1)C(=O)N[C@H](Cc1ccccc1)C(=O)O` [Mi-D-Phe], the IC50 is 168.4 ± 1.4 µM in assay [1] (setting [9]); 194 ± 6.2 µM in assay [2] (Mus musculus, B16-F10, 48 h); 19.7 ± 0.8 µM in assay [3].
Regarding `N[C@@H](Cn1ccc(=O)c(O)c1)C(=O)N1CCC[C@@H]1C(=O)O` [Mi-D-Pro], the IC50 in assay [1] (setting [9]) stood at 123 ± 3 µM; in assay [2] (Mus musculus, B16-F10, 48 h), 146 ± 5.2 µM; in assay [3] it was 17.2 ± 2.1 µM; in assay [4], 21 ± 2 µM; in assay [5], 128 ± 7.7 µM. In addition, the “SI COX-1/COX-2 (selectivity index, COX-1 IC50/COX-2 IC50)” value in assay [6] was determined as 0.15.
Take `N[C@@H](Cn1ccc(=O)c(O)c1)C(=O)N1CCC[C@H]1C(=O)O` [Mi-L-Pro]: the IC50 in assay [1] (setting [9]) was 110 ± 5.3 µM; in assay [2] (Mus musculus, B16-F10, 48 h), 167 ± 7.3 µM; in assay [3], 13 µM and 13.1 µM; in assay [4] it was 17.9 ± 2.1 µM; in assay [5], 29.3 ± 3 µM. In assay [7], the “Inhibition Type” value was “competitive”. Besides, the Ki in assay [7] stood at 50 µM.
In the case of `N[C@@H](Cn1ccc(=O)c(O)c1)C(=O)N[C@@H](Cc1ccccc1)C(=O)O` [Mi-L-Phe], the half-maximal inhibitory concentration (IC50) was 121 ± 8.6 µM in assay [1] (setting [9]); 179.2 ± 1.3 µM in assay [2] (Mus musculus, B16-F10, 48 h); 24.1 ± 3.8 µM in assay [3].
For `CC(C)[C@@H](NC(=O)[C@@H](N)Cn1ccc(=O)c(O)c1)C(=O)O` [Mi-D-Val], the IC50 was 112 ± 8.1 µM in assay [1] (setting [9]); 162 ± 4.1 µM in assay [2] (Mus musculus, B16-F10, 48 h); 10 µM and 10.3 µM in assay [3]. In addition, the “Inhibition Type” value in assay [7] is “competitive”. Also, the Ki in assay [7] turned out to be 20 µM.
As for `N[C@@H](Cn1ccc(=O)c(O)c1)C(=O)N[C@H](Cc1c[nH]c2ccccc12)C(=O)O` [Mi-D-Trp], the IC50 is 116 ± 4.9 µM in assay [1] (setting [9]); 150 ± 2.3 µM in assay [2] (Mus musculus, B16-F10, 48 h); 17 µM and 16.9 µM in assay [3]; 26.1 ± 1.3 µM in assay [4]; 27.5 ± 2.2 µM in assay [5]. Further, in assay [7], the “Inhibition Type” value is given as “competitive”. The Ki in assay [7] was found to be 80 µM. In addition, the “SI COX-1/COX-2 (selectivity index, COX-1 IC50/COX-2 IC50)” value in assay [6] is 0.95.
